In patent US20240109853A1 (Shanghai Yao Yuan Biotechnology Co., Ltd., priority 2020, published 2024) one finds IC50 data, which are given here for 34 molecules.

Counter-ions that a name gives are not always drawn. Like-named read-outs stand apart in the source and are kept apart here.

For this assay, the target named is ALPK1 (Homo sapiens (Human), UniProt Q96QP1). Nature of the assay: ALPK1 in vitro kinase assay (HTRF of TIFA phosphorylation). It counts as biochemical.
Where [1] appears, read: ALPK1 2 nM, TIFA substrate, ADP-Heptose activator, HTRF readout.

Sequence of ALPK1 (Q96QP1 whole entry): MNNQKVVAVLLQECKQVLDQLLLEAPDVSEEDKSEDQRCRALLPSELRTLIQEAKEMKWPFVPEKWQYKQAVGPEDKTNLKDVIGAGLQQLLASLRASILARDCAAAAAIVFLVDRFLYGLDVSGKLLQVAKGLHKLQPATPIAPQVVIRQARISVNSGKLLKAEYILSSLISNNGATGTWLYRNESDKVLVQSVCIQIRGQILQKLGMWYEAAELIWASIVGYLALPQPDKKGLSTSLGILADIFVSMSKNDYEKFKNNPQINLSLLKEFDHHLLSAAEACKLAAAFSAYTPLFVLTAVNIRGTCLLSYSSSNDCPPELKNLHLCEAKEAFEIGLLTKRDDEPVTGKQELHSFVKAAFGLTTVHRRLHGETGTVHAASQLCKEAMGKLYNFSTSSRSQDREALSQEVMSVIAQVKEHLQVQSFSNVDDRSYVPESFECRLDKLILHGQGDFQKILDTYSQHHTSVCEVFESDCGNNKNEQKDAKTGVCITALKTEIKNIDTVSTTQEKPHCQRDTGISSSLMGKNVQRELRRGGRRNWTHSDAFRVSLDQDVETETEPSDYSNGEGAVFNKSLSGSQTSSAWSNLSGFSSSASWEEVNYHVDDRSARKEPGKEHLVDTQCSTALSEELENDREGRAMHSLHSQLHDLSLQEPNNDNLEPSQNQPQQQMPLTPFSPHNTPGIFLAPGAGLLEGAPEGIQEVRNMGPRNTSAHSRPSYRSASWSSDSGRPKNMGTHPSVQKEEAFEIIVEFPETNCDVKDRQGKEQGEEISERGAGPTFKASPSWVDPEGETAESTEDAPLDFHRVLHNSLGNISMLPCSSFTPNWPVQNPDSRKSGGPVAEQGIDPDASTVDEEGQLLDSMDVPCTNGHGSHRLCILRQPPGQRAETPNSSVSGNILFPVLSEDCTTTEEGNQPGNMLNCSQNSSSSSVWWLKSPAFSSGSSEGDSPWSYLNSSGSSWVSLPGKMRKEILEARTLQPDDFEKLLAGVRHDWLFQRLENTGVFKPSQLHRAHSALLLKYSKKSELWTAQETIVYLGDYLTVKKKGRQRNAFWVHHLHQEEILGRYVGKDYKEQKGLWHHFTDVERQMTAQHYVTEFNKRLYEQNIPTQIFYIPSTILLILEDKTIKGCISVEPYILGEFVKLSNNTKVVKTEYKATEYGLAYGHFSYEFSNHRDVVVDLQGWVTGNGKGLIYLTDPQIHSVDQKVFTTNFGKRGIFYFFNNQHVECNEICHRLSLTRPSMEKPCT

The molecule `C#C[C@](C)(c1ccc(F)cc1)c1csc(NC(=O)c2ccc(N3CCNCC3CO)cc2)n1` (stereo in doubt) [Example B070, N-[4-[1-(4-fluorophenyl)-1-methyl-prop-2-ynyl]thiazol-2-yl]-4-[2-(hydroxymethyl)piperazin-1-yl]benzamide] gave an IC50 under setting [1] of 169 nM.
For the molecule `CC(C)(c1ccc(Br)cn1)c1csc(NC(=O)NCc2ccc(N3CCNCC3)c(F)c2)n1` [Example A057, 1-(4-(2-(5-bromopyridin-2-yl)propan-2-yl)thiazol-2-yl)-3-(3-fluoro-4-(piperazin-1-yl)benzyl)urea], the IC50 was 246 nM.
Turning to `COc1ccc(C(C)(C)c2csc(NC(=O)c3ccc(C4(O)CCNCC4)cc3)n2)cc1` [Example B049, 4-(4-hydroxypiperidin-4-yl)-N-(4-(2-(4-methoxyphenyl)propan-2-yl)thiazol-2-yl)benzamide hydrochloride], the IC50 under setting [1] worked out at 459 nM.
The same measure, in the same setting: next, `CC(C)(c1ccc(Br)cc1)c1csc(NC(=O)c2ccc(N3CCNCC3)nc2)n1` [Example B035, N-(4-(2-(4-bromophenyl)propan-2-yl)thiazol-2-yl)-6-(piperazin-1-yl)nicotinamide]: 75 nM.
In turn, `C#C[C@@](C)(c1ccc(Cl)cc1)c1csc(NC(=O)c2c(F)cc(N3CCNCC3CO)cc2F)n1` (stereo in doubt) [Example B097, N-[4-[1-(4-chlorophenyl)-1-methyl-prop-2-ynyl]thiazol-2-yl]-2,6-difluoro-4-[2-(hydroxymethyl)piperazin-1-yl]benzamide] displayed an IC50 under setting [1] of 119 nM.
With `COc1ccc(C(C)(C)c2csc(NC(=O)c3ccc(OCC(C)O)cc3)n2)cc1` (stereo not shown) [Example B063, 4-(2-hydroxypropoxy)-N-(4-(2-(4-methoxyphenyl)propan-2-yl)thiazol-2-yl)benzamide], the IC50 under setting [1] was determined as 245 nM.
In the case of `C#CC(C)(c1ccc(Cl)cc1)c1csc(NC(=O)c2ccc(N3CCNCC3)nc2)n1` (stereo not shown) [Example B061, N-(4-(2-(4-chlorophenyl)but-3-yn-2-yl)thiazol-2-yl)-6-(piperazin-1-yl)nicotinamide], under setting [1], half-maximal inhibition (IC50) required 167 nM.
On the same count and under the same terms, under `C#C[C@@](C)(c1ccc(F)cc1)c1csc(NC(=O)c2ccc(N3CCNCC3CO)cc2)n1` (stereo in doubt) [Example B069, N-[4-[1-(4-fluorophenyl)-1-methyl-prop-2-ynyl]thiazol-2-yl]-4-[2-(hydroxymethyl)piperazin-1-yl]benzamide] stands 20 nM.
Same read-out and setting: next, `CCOCC(C)(c1ccccc1)c1csc(NC(=O)c2c(F)cc(N3CCNCC3)cc2F)n1` (stereo not shown) [Example C012, N-(4-(1-ethoxy-2-phenylpropan-2-yl)thiazol-2-yl)-2,6-difluoro-4-(piperazin-1-yl)benzamide]: 78 nM; `COc1ccc(C(C)(C)c2csc(NC(=O)c3ccc(CN4CCNCC4)cc3F)n2)cc1` [Example B013, 2-fluoro-N-(4-(2-(4-methoxyphenyl)propan-2-yl)thiazol-2-yl)-4-(piperazin-1-ylmethyl)benzamide]: 111 nM; `COc1ccc(C(C)(C)c2csc(NC(=O)c3ccc(N4CCNCC4)nc3)n2)cc1` [Example B042, N-(4-(2-(4-methoxyphenyl)propan-2-yl)thiazol-2-yl)-6-(piperazin-1-yl)nicotinamide]: 86 nM.
On to `COc1ccc(C(C)(C)c2csc(NC(=O)c3ccc(NCCN(C)C)nc3)n2)cc1` [Example B056, 6-((2-(dimethylamino)ethyl)amino)-N-(4-(2-(4-methoxyphenyl)propan-2-yl)thiazol-2-yl)nicotinamide], for which the IC50 under setting [1] turned out to be 120 nM.
In turn, `COc1ccc(C(C)(C)c2csc(NC(=O)NCc3ccc(N4CCC(N)C4)cc3)n2)cc1` (stereo not shown) [Example A184, 1-(4-(3-aminopyrrolidin-1-yl)benzyl)-3-(4-(2-(4-methoxyphenyl)propan-2-yl)thiazol-2-yl)urea] came in with an IC50 of 242 nM.
Molecule `COc1ccc(C(C)(C)c2csc(NC(=O)c3ccc(N4CCN(CCO)CC4)cc3)n2)cc1` [Example B006, 4-(4-(2-hydroxyethyl)piperazin-1-yl)-N-(4-(2-(4-methoxyphenyl)propan-2-yl)thiazol-2-yl)benzamide] showed an IC50 under setting [1] of 595 nM.
Still for that read-out and setting: under `COCC(C)(c1ccc(OC)cc1)c1csc(NC(=O)c2c(F)cc(N3CCNCC3)cc2F)n1` (stereo not shown) [Example C028, 2,6-difluoro-N-(4-(1-methoxy-2-(4-methoxyphenyl)propan-2-yl)thiazol-2-yl)-4-(piperazin-1-yl)benzamide] stands 288 nM.
The molecule `CC(C)(c1ccc(Br)cc1)c1csc(NC(=O)NCc2cnc(N3CCC(N)C3)nc2)n1` (stereo not shown) [Example A078, 1-((2-(3-aminopyrrolidin-1-yl)pyrimidin-5-yl)methyl)-3-(4-(2-(4-bromophenyl)propan-2-yl)thiazol-2-yl)urea] had an IC50 of 8 nM.
On the same count and under the same terms, under `COc1ccc(C(C)(C)c2csc(NC(=O)NCc3ccc(NCCO)cc3)n2)cc1` [Example A109, 1-(4-((2-hydroxyethyl)amino)ben-zyl)-3-(4-(2-(4-methoxyphenyl)propan-2-yl)thiazol-2-yl)urea] stands 146 nM.
In turn, `CC(c1ccc(Cl)cc1)c1csc(NC(=O)c2c(F)cc(N3CCNCC3)cc2F)n1` (stereo not shown) [Example C003, N-(4-(1-(4-chlorophenyl)ethyl)thiazol-2-yl)-2,6-difluoro-4-(piperazin-1-yl)benzamide] gave an IC50 under setting [1] of 11 nM.
Same read-out and setting: next, `COc1ccc(C(C)(C)c2csc(NC(=O)c3cnc(N4CCNCC4)cn3)n2)cc1` [Example B025, N-(4-(2-(4-methoxyphenyl)propan-2-yl)thiazol-2-yl)-5-(piperazin-1-yl)pyrazine-2-carboxamide]: 298 nM; `COc1ccc(C(C)(C)c2csc(NC(=O)c3ccc(NCCO)cc3)n2)cc1` [Example B032, 4-((2-hydroxyethyl)amino)-N-(4-(2-(4-methoxyphenyl)propan-2-yl)thiazol-2-yl)benzamide]: 280 nM.
Same read-out and setting: next, `C#C[C@](C)(c1csc(NC(=O)c2c(F)cc(N3CCNCC3)cc2F)n1)c1ccc(Cl)cc1F` (stereo in doubt) [Example C044, N-(4-(2-(4-chloro-2-fluorophenyl)but-3-yn-2-yl)thiazol-2-yl)-2,6-difluoro-4-(piperazin-1-yl)benzamide]: 25 nM; `COc1ccc(C(C)(C)c2csc(NC(=O)c3ccc(C4CCNCC4)cc3)n2)cc1` [Example B047, N-(4-(2-(4-methoxyphenyl)propan-2-yl)thiazol-2-yl)-4-(piperidin-4-yl)benzamide hydrochloride]: 128 nM.
Take `C#CC(C)(c1ccc(OC)cc1)c1csc(NC(=O)c2c(F)cc(N3CCNC(CO)C3)cc2F)n1` (stereo not shown) [Example B084, 2,6-difluoro-4-(3-(hydroxymethyl)piperazin-1-yl)-N-(4-(2-(4-methoxyphenyl)but-3-yn-2-yl)thiazol-2-yl)benzamide]: under setting [1], it took 28 nM to reach half-maximal inhibition (IC50).
Same read-out and setting: under `COc1ccc(C(C)(C)c2csc(NC(=O)c3ccc(C(=O)NC4CCN(C)CC4)cc3)n2)cc1` [Example B030, N1-(4-(2-(4-methoxyphenyl)propan-2-yl)thiazol-2-yl)-N4-(1-methylpiperidin-4-yl)terephthalamide] stands 155 nM.
The same measure, in the same setting: under `C#CC(C)(c1ccc(OC)cc1)c1csc(NC(C)=O)n1` (stereo not shown) [Example D002, N-(4-(2-(4-methoxyphenyl)but-3-yn-2-yl)thiazol-2-yl)acetamide] stands 196 nM.
As to `COc1ccc(C(C)(C)c2csc(NC(=O)c3cc(I)cc(I)c3O)n2)cc1` [Example B050, 2-hydroxy-3,5-diiodo-N-(4-(2-(4-methoxyphenyl)propan-2-yl)thiazol-2-yl)benzamide], under setting [1], the IC50 was found to be 77 nM.
Under setting [1], `COc1ccc(C(C)(C)c2csc(NC(=O)c3ccc(N4CCNCC4)cc3)n2)cc1` [Example B001, N-(4-(2-(4-methoxyphenyl)propan-2-yl)thiazol-2-yl)-4-(piperazin-1-yl)benzamide] returned an IC50 of 123 nM.
In the case of `COc1ccc(C(C)(C)c2csc(NC(=O)c3ccc(OCCN(C)C)cc3)n2)cc1` [Example B021, 4-(2-(dimethylamino)ethoxy)-N-(4-(2-(4-methoxyphenyl)propan-2-yl)thiazol-2-yl)benzamide], under setting [1], half-maximal inhibition (IC50) required 83 nM.
For `C#C[C@](C)(c1ccc(Cl)cc1)c1csc(NC(=O)c2c(F)cc(N3CCC(N)C3)cc2F)n1` (stereo in doubt) [Example B085, 4-(3-aminopyrrolidin-1-yl)-N-(4-(2-(4-chlorophenyl)but-3-yn-2-yl)thiazol-2-yl)-2,6-difluorobenzamide], under setting [1], the IC50 worked out at 395 nM.
On the same count and under the same terms, under `COc1ccc(C(C)(C)c2csc(NC(=O)c3ccc(CN4CCNCC4)cc3)n2)cc1` [Example B040, N-(4-(2-(4-methoxyphenyl)propan-2-yl)thiazol-2-yl)-4-(piperazin-1-ylmethyl)benzamide] stands 93 nM.
The molecule `COc1ccc(C(C)(C)c2csc(NC(=O)NCc3ccc(N4CCC(O)C4)cc3)n2)cc1` (stereo not shown) [Example A069, 1-(4-(3-hydroxypyrrolidin-1-yl)benzyl)-3-(4-(2-(4-methoxyphenyl)propan-2-yl)thiazol-2-yl)urea] returned an IC50 of 269 nM.
The same measure, in the same setting: next, `CC(C)(c1ccc(Br)cc1)c1csc(NC(=O)NCc2cnc(N3CCNC(=O)C3)nc2)n1` [Example A113, 1-(4-(2-(4-bromophenyl)propan-2-yl)thiazol-2-yl)-3-((2-(3-oxopiperazin-1-yl)pyrimidin-5-yl)methyl)urea]: 126 nM.
For `CC(C)(c1ccc(Br)cc1)c1csc(NC(=O)c2ccc3[nH]ccc3c2)n1` [Example B002, N-(4-(2-(4-bromophenyl)propan-2-yl)thiazol-2-yl)-1H-indole-5-carboxamide], the IC50 under setting [1] was found to be 206 nM.
Still for that read-out and setting: next, `CC(C)(c1ccc(Br)cc1)c1csc(NC(=O)c2ccc(N3CCNCC3)cc2)n1` [Example B016, N-(4-(2-(4-bromophenyl)propan-2-yl)thiazol-2-yl)-4-(piperazin-1-yl)benzamide]: 60 nM.
